Structures can show the parent of a compound that is named as a salt.
How the values were obtained:
Type in all cases: biochemical
[1] = target: human JAK2 (a.a. 828-1132) catalytic domain (Homo sapiens (Human), UniProt O60674); assay: In vitro JAK kinase assay (HTRF), JAK2; conditions: JAK enzyme assay at 1 mM ATP
Experimental: (§1) The catalytic activity of JAK1, JAK2 or JAK3 was assayed by measuring the phosphorylation of a biotinylated peptide. The phosphorylated peptide was detected by homogenous time resolved fluorescence (HTRF). […] Reactions were carried out at room temperature for 1 hour and then stopped with 20 μL 45 mM EDTA, 300 nM SA-APC, 6 nM Eu-Py20 in assay buffer (Perkin Elmer, Boston, Mass.). Binding to the Europium labeled antibody took place for 40 minutes and HTRF signal was measured on a Fusion plate reader (Perkin Elmer, Boston, Mass.).

[2] = test system: human JAK1 (a.a. 837-1142) catalytic domain; assay: In vitro JAK kinase assay (HTRF), JAK1; conditions: ratio of IC50 values at 1 mM ATP
Experimental: as §1

[3] = target: human JAK1 (a.a. 837-1142) catalytic domain (Homo sapiens, UniProt P23458); assay: In vitro JAK kinase assay (HTRF), JAK1; conditions: JAK enzyme assay at 1 mM ATP
Experimental: as §1

human JAK2 (a.a. 828-1132) catalytic domain, sequence (O60674 828-1132): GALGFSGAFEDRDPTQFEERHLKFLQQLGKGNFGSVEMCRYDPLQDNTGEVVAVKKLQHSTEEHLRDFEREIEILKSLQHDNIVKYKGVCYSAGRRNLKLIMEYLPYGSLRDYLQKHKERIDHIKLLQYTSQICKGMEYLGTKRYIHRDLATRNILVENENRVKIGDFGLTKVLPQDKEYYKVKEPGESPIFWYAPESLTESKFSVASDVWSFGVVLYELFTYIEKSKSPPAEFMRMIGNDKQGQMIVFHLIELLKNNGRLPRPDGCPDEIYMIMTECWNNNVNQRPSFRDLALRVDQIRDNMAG

| SMILES | IC50 [1] | JAK2/JAK1 [2] | IC50 [3] |
| --- | --- | --- | --- |
| Cc1n[nH]cc1-c1cn(C2(CC#N)CN(c3cnc(C(=O)NC(C)C)cn3)C2)nc1C [Example 6, 5-[3-(Cyanomethyl)-3-(3,3′-dimethyl-1H,1′H-4,4′-bipyrazol-1-yl)azetidin-1-yl]-N-isopropylpyrazine-2-carboxamide trifluoroacetate] | > 1000 nM | >10 | < 300 nM |
| Cc1n[nH]cc1-c1cnn(C2(CC#N)CN(c3ccc(C(=O)NC(C)C)cc3)C2)c1 [Example 3, 4-[3-(Cyanomethyl)-3-(3′-methyl-1H,1′H-4,4′-bipyrazol-1-yl)azetidin-1-yl]-N-isopropylbenzamide trifluoroacetate] | > 1000 nM | >10 | < 300 nM |
| CCc1n[nH]cc1-c1cnn(C2(CC#N)CN(c3cnc(C(=O)N[C@@H](C)C(F)(F)F)cn3)C2)c1 [Example 11, 5-[3-(Cyanomethyl)-3-(3′-ethyl-1H,1′H-4,4′-bipyrazol-1-yl)azetidin-1-yl]-N-[(1S)-2,2,2-trifluoro-1-methylethyl]pyrazine-2-carboxamide trifluoroacetate] | > 1000 nM |  | 300 to 1000 nM |
| Cc1n[nH]cc1-c1cn(C2(CC#N)CN(c3cc(F)c(C(=O)N[C@@H](C)C(F)(F)F)cc3F)C2)nc1CO [Example 13, 4-{3-(Cyanomethyl)-3-[3-(hydroxymethyl)-3′-methyl-1H,1′H-4,4′-bipyrazol-1-yl]azetidin-1-yl}-2,5-difluoro-N-[(1S)-2,2,2-trifluoro-1-methylethyl]benzamide] | > 1000 nM | >10 | < 300 nM |
| Cc1n[nH]c(C)c1-c1cnn(C2(CC#N)CN(c3cnc(C(=O)N[C@@H](C)C(F)(F)F)cn3)C2)c1 [Example 9, 5-[3-(Cyanomethyl)-3-(3′,5′-dimethyl-1H,1′H-4,4′-bipyrazol-1-yl)azetidin-1-yl]-N-[(1S)-2,2,2-trifluoro-1-methylethyl]pyrazine-2-carboxamide trifluoroacetate] | 300 to 1000 nM | >10 | < 300 nM |
| Cc1n[nH]cc1-c1cnn(C2(CC#N)CN(c3cnc(C(=O)NC(C)C)cn3)C2)c1 [Example 2, 5-[3-(Cyanomethyl)-3-(3′-methyl-1H,1′H-4,4′-bipyrazol-1-yl)azetidin-1-yl]-N-isopropylpyrazine-2-carboxamide trifluoroacetate] | 300 to 1000 nM | >10 | < 300 nM |
| Cc1nn(C2(CC#N)CN(c3cnc(C(=O)NC(C)C)cn3)C2)cc1-c1cn[nH]c1 [Example 10, 5-[3-(Cyanomethyl)-3-(3-methyl-1H,1′H-4,4′-bipyrazol-1-yl)azetidin-1-yl]-N-isopropylpyrazine-2-carboxamide trifluoroacetate] | > 1000 nM |  | 300 to 1000 nM |
| Cc1n[nH]c(C)c1-c1cnn(C2(CC#N)CN(c3cnc(C(=O)NC(C)C)cn3)C2)c1 [Example 8, 5-[3-(Cyanomethyl)-3-(3′,5′-dimethyl-1H,1′H-4,4′-bipyrazol-1-yl)azetidin-1-yl]-N-isopropylpyrazine-2-carboxamide] |  |  | < 300 nM |
| Cc1[nH]ncc1-c1cnn(C2(CC#N)CN(c3cnc(C(=O)N[C@@H](C)C(F)(F)F)cn3)C2)c1 [Example 1, 5-[3-(Cyanomethyl)-3-(3′-methyl-1H,1′H-4,4′-bipyrazol-1-yl)azetidin-1-yl]-N-[(1S)-2,2,2-trifluoro-1-methylethyl]pyrazine-2-carboxamide trifluoroacetate] | > 700 nM | >10 | < 300 nM |
| Cc1n[nH]cc1-c1cnn(C2(CC#N)CN(c3cc(F)c(C(=O)N[C@@H](C)C(F)(F)F)cc3F)C2)c1 [Example 4, 4-[3-(Cyanomethyl)-3-(3′-methyl-1H,1′H-4,4′-bipyrazol-1-yl)azetidin-1-yl]-2,5-difluoro-N-[(1S)-2,2,2-trifluoro-1-methylethyl]benzamide trifluoroacetate] |  |  | < 300 nM |
| C[C@H](NC(=O)c1cc(F)c(N2CC(CC#N)(n3cc(-c4c[nH]nc4CO)cn3)C2)cc1F)C(F)(F)F [Example 12, 4-{3-(Cyanomethyl)-3-[3′-(hydroxymethyl)-1H,1′H-4,4′-bipyrazol-1-yl]azetidin-1-yl}-2,5-difluoro-N-[(1S)-2,2,2-trifluoro-1-methylethyl]benzamide trifluoroacetate] | > 1000 nM |  | 300 to 1000 nM |
| C[C@H](NC(=O)c1cc(F)c(N2CC(CC#N)(n3cc(-c4cn[nH]c4)cn3)C2)cc1F)C(F)(F)F [Example 5, 4-[3-(1H,1′H-4,4′-Bipyrazol-1-yl)-3-(cyanomethyl)azetidin-1-yl]-2,5-difluoro-N-[(1S)-2,2,2-trifluoro-1-methylethyl]benzamide trifluoroacetate] | > 1000 nM | >10 | 300 to 1000 nM |
